Assay results taken from patent US8686022B2, “7-(piperazine-1-ymethyl)-1H-indole-2-carboxylic acid (phenyl)-amide derivatives and allied compounds as p38 MAP kinase inhibitors for the treatment of respiratory diseases” (Boehringer Ingelheim International GmbH, priority 2008, dated 2014).
≈ marks a conversion by molar mass, not a printed value.

Tests used:
[1] = molecular target: p38 MAP-kinase (Homo sapiens, UniProt Q16539); assay: p38 MAP-kinase enzymatic assay (phosphorylation of GST-tagged ATF2, chemoluminescence); assay type: biochemical; conditions: inhibitor concentration 1 μM; activated p38 MAP-kinase 1 nM; ATP 100 μM; read-out: p38 (% Inh @ 1 μM)
p38 MAP-kinase, sequence (Q16539 whole entry): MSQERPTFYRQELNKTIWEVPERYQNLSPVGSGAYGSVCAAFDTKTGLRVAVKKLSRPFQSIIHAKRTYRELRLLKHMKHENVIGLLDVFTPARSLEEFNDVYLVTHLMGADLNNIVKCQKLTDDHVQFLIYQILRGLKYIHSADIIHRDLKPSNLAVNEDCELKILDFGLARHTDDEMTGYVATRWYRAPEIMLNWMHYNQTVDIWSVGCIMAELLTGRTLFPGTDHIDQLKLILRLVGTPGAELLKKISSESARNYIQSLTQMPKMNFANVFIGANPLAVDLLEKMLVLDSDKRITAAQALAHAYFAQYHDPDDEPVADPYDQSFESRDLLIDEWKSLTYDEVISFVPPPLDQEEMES
Method: In this, the amount of a substrate phosphorylated by the kinase is quantified. The test is carried out as follows:
The kinase reaction is carried out in the presence of HEPES (20 mM, pH 7), MgCl2 (10 mM), DTT (1 mM) and TWEEN20 (0.01%). First, dimethylsulphoxide or inhibitor (final concentration: 1 μM) dissolved in dimethylsulphoxide are placed in a reaction vessel. Then the activated p38 MAP-kinase (final concentration 1 nM) is added and the mixture is incubated for 4 h at ambient temperature. Then a mixture of substrate (GST-tagged ATF2) and ATP is added and everything is incubated together for a further hour (final concentration ATP: 100 μM; final concentration ATF2: 10 nM).
The concentration of phosphorylated ATF2 is quantified by chemoluminescence-induced light emission. For this, a glutathione donor bead (final concentration: 5 μg/ml) which binds to the gluthathione on the ATF2 and phospho-ATF2 antibodies are added to the reaction mixture (final concentration: 3 nM; this binds the phosphate group added by the kinase reaction) to which a Protein A Acceptor Bead (final concentration: 5 μg/ml) binds. These components are dissolved in a buffer which contains 20 mM HEPES pH 7.0, 200 mM NaCL, 80 mM EDTA as well as 0.3% BSA. This reaction mixture is incubated in the dark for 1 hour at ambient temperature. When these beads come physically close, visible light is emitted which is measured in a photometer at 520-620 nm.
To determine the inhibitory activity of the compounds according to the invention a calculation is made to determine the percentage by which the kinase activity is inhibited at a fixed inhibitor concentration of 1 μM. The maximum activity is determined by non-inhibited kinase. The minimum activity or nonspecific background activity is determined using a reaction mixture without kinase.
Table 2 summarises the degree of inhibition of the enzyme p38 MAP-kinase—as described hereinbefore—mediated by the compounds according to the invention detailed in the section “Preparation of the final compounds”.

[2] = molecular target: cytochrome P450 2C9 (Homo sapiens, UniProt P11712); assay: Determining the cyp2C9 activity (O-demethylation of [O-methyl-14C]-naproxen); assay type: in vitro ADME; conditions: human recombinant cytochrome P450 2C9; 37° C.; <0.4 μM when inhibition >50% at lowest concentration; read-out: CYP 2C9 IC50
cytochrome P450 2C9, sequence (P11712 whole entry): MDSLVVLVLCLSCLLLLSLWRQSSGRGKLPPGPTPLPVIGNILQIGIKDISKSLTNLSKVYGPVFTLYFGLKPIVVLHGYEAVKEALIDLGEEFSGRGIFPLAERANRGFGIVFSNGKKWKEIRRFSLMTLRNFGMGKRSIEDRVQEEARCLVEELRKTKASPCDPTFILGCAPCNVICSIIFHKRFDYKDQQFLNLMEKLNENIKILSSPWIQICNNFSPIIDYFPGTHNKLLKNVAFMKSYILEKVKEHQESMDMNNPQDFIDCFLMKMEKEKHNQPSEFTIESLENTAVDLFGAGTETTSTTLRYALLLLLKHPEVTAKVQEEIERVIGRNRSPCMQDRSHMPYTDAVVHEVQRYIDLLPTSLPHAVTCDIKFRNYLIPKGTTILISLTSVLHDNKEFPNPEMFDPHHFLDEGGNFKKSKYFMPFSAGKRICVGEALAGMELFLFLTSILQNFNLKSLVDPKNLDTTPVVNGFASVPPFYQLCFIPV
Method: Determining the cyp2C9 Activity:
The assay is carried out in a robot system with 96-well plates. The final incubation volume is 200 μl of TRIS-Puffer (0.1 M), magnesium chloride (5 mM), recombinant protein (40 pmol/ml), ^14C-labelled naproxen (80 μM) and the test compound in one of 4 concentrations (50 μM, 10 μM, 2 μM and 0.4 μM) as a duplicate in each case. After a short preincubation period the reactions are started by the addition of the cofactor (NADPH, 1 mM) and ended after 15 min by the addition of 50 μl of a 10% aqueous trichloroacetic acid solution. One aliquot of the incubate is transferred onto a 96-well solid phase extraction plate and extracted. The ^14C-formaldehyde formed during the reaction is not retained on the solid phase extraction plate and is thus separated from the unmetabolised substrate by washing the solid phase extraction plate with water. One aliquot of the eluate is transferred into a well plate suitable for liquid scintillation. […] The IC50 is determined by the least squares method using the following formula: control activity=(100% control activity/(1+(I/IC50)S))−B where I=Inhibitor concentration S=Pitch B=Background activity
When the inhibition of the reaction is >50% even at the lowest concentration of the test compound, the IC50 is given as <0.4 μM.

[3] = Determining the solubility (saturated solution in McIlvaine buffer pH 7.4, UV spectroscopy); assay type: physicochemical; conditions: pH 7.4, aqueous buffer, thermodynamic from solid, shaken 2 hours, 0.75 mg solid in 0.75 ml
Method: Determining the Solubility:
Saturated solutions are prepared in suitable well dishes by adding 0.75 ml of a McIlvaine buffer (pH 7.4) to the well in question containing 0.75 mg of solid of an active substance. The wells are shaken for 2 hours and then filtration is carried out through a suitable filter membrane (typically polytetrafluoroethylene with a pore size of 0.45 μm). Filter absorption is prevented by discarding the first few drops of filtrate. The amount of active substance dissolved is determined by UV spectroscopy.

Compound	inhibition at 1 µM [1] [%]	IC50 [2] [nM]	solubility at 2 h [3] [µg/mL]
COc1c(NC(=O)c2cc3cccc(CN4CCN(C(=O)CN5CC[C@H](O)C5)CC4)c3n2C)cc(C(C)(C)C)cc1NS(C)(=O)=O [1(15), (S)-7-{4-[2-(3-hydroxy-pyrrolidin-1-yl)-acetyl]-piperazin-1-ylmethyl}-1-methyl-1H-indole-2-carboxylic acid-(5-tert-butyl-3-methanesulphonylamino-2-methoxy-phenyl)-amide]	98.9	1210	73 (≈ 111 µM)
COc1c(NC(=O)c2cc3cccc(CN4CCN(C(=O)CN5CCCC5)CC4)c3n2C)cc(C(C)(C)C)cc1NS(C)(=O)=O [1(16), 1-methyl-7-[4-(2-pyrrolidin-1-yl-acetyl)-piperazin-1-ylmethyl]-1H-indole-2-carboxylic acid-(5-tert-butyl-3-methanesulphonylamino-2-methoxy-phenyl)-amide]	98.4	20400	620 (≈ 971 µM)
COc1c(NC(=O)c2cc3cccc(CC4CCCN(C(=O)[C@@H]5CCCN5C)CC4)c3n2C)cc(C(C)(C)C)cc1NS(C)(=O)=O (stereo partly drawn) [1(18), 1-methyl-7-[1-((2S)-1-methyl-pyrrolidine-2-carbonyl)-azepan-4-ylmethyl]-1H-indole-2-carboxylic acid-(5-tert-butyl-3-methanesulphonylamino-2-methoxy-phenyl)-amide]	98	840	80 (≈ 123 µM)
COc1c(NC(=O)c2cc3cccc(CC4CCCN(C(=O)C5CCN(C)CC5)CC4)c3n2C)cc(C(C)(C)C)cc1NS(C)(=O)=O (stereo not drawn) [1(19), 1-methyl-7-[1-(1-methyl-piperidine-4-carbonyl)-azepan-4-ylmethyl]-1H-indole-2-carboxylic acid-(5-tert-butyl-3-methanesulphonylamino-2-methoxy-phenyl)-amide]	98.5	3590	98 (≈ 147 µM)
COc1c(NC(=O)c2cc3cccc(CC4CCCN(C(=O)[C@H]5CCCN5C)CC4)c3n2C)cc(C(C)(C)C)cc1NS(C)(=O)=O (stereo partly drawn) [1(20), 1-methyl-7-[1-((2R)-1-methyl-pyrrolidine-2-carbonyl)-azepan-4-ylmethyl]-1H-indole-2-carboxylic acid-(5-tert-butyl-3-methanesulphonylamino-2-methoxy-phenyl)-amide]	99.1	2590	124 (≈ 190 µM)
COc1c(NC(=O)c2cc3cccc(CN4CCC(C(=O)N5CCN(C)CC5)CC4)c3n2C)cc(C(C)(C)C)cc1NS(C)(=O)=O [1(22), 1-methyl-7-[4-(4-methyl-piperazine-1-carbonyl)-piperidin-1-ylmethyl]-1H-indole-2-carboxylic acid-(5-tert-butyl-3-methanesulphonylamino-2-methoxy-phenyl)-amide]	99.1	1540	42 (≈ 64.3 µM)
COc1c(NC(=O)c2cc3cccc(CN4CCC(C(=O)N5CC[C@H](N(C)C)C5)CC4)c3n2C)cc(C(C)(C)C)cc1NS(C)(=O)=O [1(23), (S)-7-[4-(3-dimethylamino-pyrrolidine-1-carbonyl)-piperidin-1-ylmethyl]-1-methyl-1H-indole-2-carboxylic acid-(5-tert-butyl-3-methanesulphonylamino-2-methoxy-phenyl)-amide]	97	1770	280 (≈ 420 µM)
COc1c(NC(=O)c2cc3cccc(CN4CCC(C(=O)N5CC[C@@H](N(C)C)C5)CC4)c3n2C)cc(C(C)(C)C)cc1NS(C)(=O)=O [1(24), (R)-7-[4-(3-dimethylamino-pyrrolidine-1-carbonyl)-piperidin-1-ylmethyl]-1-methyl-1H-indole-2-carboxylic acid-(5-tert-butyl-3-methanesulphonylamino-2-methoxy-phenyl)-amide]	54.2	2470	36 (≈ 54 µM)
COc1c(NC(=O)c2cc3cccc(CN4CCN(C(=O)N5CC[C@H](N(C)C)C5)CC4)c3n2C)cc(C(C)(C)C)cc1NS(C)(=O)=O [2(1), (S)-7-[4-(3-dimethylamino-pyrrolidine-1-carbonyl)-piperazin-1-ylmethyl]-1-methyl-1H-indole-2-carboxylic acid (5-tert-butyl-3-methanesulphonylamino-2-methoxy-phenyl)-amide]	99	880	28 (≈ 41.9 µM)
COc1c(NC(=O)c2cc3cccc(CN4CCN(C(=O)CN5CC[C@@H](O)C5)CC4)c3n2C)cc(C(C)(C)C)cc1NS(C)(=O)=O [6(1), (R)-7-{4-[2-(3-hydroxy-pyrrolidin-1-yl)-acetyl]-piperazin-1-ylmethyl}-1-methyl-1H-indole-2-carboxylic acid-(5-tert-butyl-3-methanesulphonylamino-2-methoxy-phenyl)-amide]	99.2	470	47 (≈ 71.8 µM)

Other lines, results leading:

inhibition at 1 µM [1] [%]	IC50 [2] [nM]	solubility at 2 h [3] [µg/mL]	Compound
99.1	990	46 (≈ 68.9 µM)	COc1c(NC(=O)c2cc3cccc(CN4CCN(C(=O)CN5CCN(C)CC5)CC4)c3n2C)cc(C(C)(C)C)cc1NS(C)(=O)=O [1(17), 1-methyl-7-{4-[2-(4-methyl-piperazin-1-yl)-acetyl]-piperazin-1-ylmethyl}-1H-indole-2-carboxylic acid-(5-tert-butyl-3-methanesulphonylamino-2-methoxy-phenyl)-amide]
98.9	4020	45 (≈ 68.9 µM)	COc1c(NC(=O)c2cc3cccc(CN4CCCN(C(=O)[C@H]5CCCN5C)CC4)c3n2C)cc(C(C)(C)C)cc1NS(C)(=O)=O [1(21), 1-methyl-7-[4-((2R)-1-methyl-pyrrolidine-2-carbonyl)-[1,4]diazepan-1-ylmethyl]-1H-indole-2-carboxylic acid-(5-tert-butyl-3-methanesulphonylamino-2-methoxy-phenyl)-amide]
35.4	7910	48 (≈ 88.1 µM)	CN1CCC[C@H]1C(=O)N1CCN(Cc2cccc3cc(C(=O)Nc4cccc(N5CCOCC5)c4)n(C)c23)CC1 [1(25), (S)-1-methyl-7-[4-(1-methyl-pyrrolidine-2-carbonyl)-piperazin-1-ylmethyl]-1H-indole-2-carboxylic acid-(3-morpholin-4-yl-phenyl)-amide]
94.9	2040	170 (≈ 260 µM)	COc1c(NC(=O)c2cc3cccc(CN4CCCN(C(=O)[C@H]5CCN(C)C5)CC4)c3n2C)cc(C(C)(C)C)cc1NS(C)(=O)=O [5(1), (S)-1-methyl-7-[4-(1-methyl-pyrrolidine-3-carbonyl)-[1,4]diazepan-1-ylmethyl]-1H-indole-2-carboxylic acid-(5-tert-butyl-3-methanesulphonylamino-2-methoxy-phenyl)-amide]
98	990	160 (≈ 245 µM)	COc1c(NC(=O)c2cc3cccc(CN4CCCN(C(=O)[C@@H]5CCN(C)C5)CC4)c3n2C)cc(C(C)(C)C)cc1NS(C)(=O)=O [5(2), (R)-1-methyl-7-[4-(1-methyl-pyrrolidine-3-carbonyl)-[1,4]diazepan-1-ylmethyl]-1H-indole-2-carboxylic acid-(5-tert-butyl-3-methanesulphonylamino-2-methoxy-phenyl)-amide]
